According to patent publication US20090317357A1, “Methods for treating or preventing autoimmune disease using histamine h1 receptor-blocking agents” (priority 2003, published 2009):

How the values were obtained:
[1] = system: EAE in SJL (H-2s) mice; experiment: EAE induced with PLP139-151 in SJL mice, daily i.p. treatment with H1R or PAFR antagonist; type: in vivo; settings: day 13, daily i.p. from day 2 after induction, pyrilamine 0.6 mg/mouse, CV6209 1 μg/mouse, vehicle group 3±0.52
Procedure: Modulation of EAE with H1R antagonist and PAFR antagonist. EAE was induced in SJL/J mice with PLP139-151. The H1R antagonist pyrilamine (0.6 mg/mouse; n=8), PAFR antagonist CV6209 (1 μg/mouse; n=8), or vehicle alone (PBS; n=7) were given daily i.p. starting on day 2 after the induction of EAE.
Mice were assessed daily for clinical signs of EAE (see id.). For each mouse, a remission was defined as decrease of the score of at least one point for at least 2 consecutive days. […] In the pharmacological studies, the histamine receptor 1 antagonist, pyrilamine (Sigma, St Louis, Mo.) and the PAF antagonist, CV6209 (Biomol, Plymouth Meeting, Pa.) were injected daily i.p. in PBS starting 2 days after the induction of EAE.
We targeted pharmacologically PAF and histamine, the main vasoactive mediators of murine anaphylaxis, and evaluated the development of EAE. EAE was induced in SJL (H-2s) mice with PLP139-151 and on the second day after the induction of the disease we started a daily i.p. treatment with the PAFR antagonist CV 6209, or with the H1R antagonist pyrilamine.

[2] = system: EAE; settings: cited: Inaba et al. 1999; Inoue et al. 1996; cited from earlier work

| Compound | mean EAE score [1] | effect on EAE [2] |
| --- | --- | --- |
| COc1ccc(CN(CCN(C)C)c2ccccn2)cc1 [pyrilamine] | 0.57±0.2 | – |
| CCCCCCCCCCCCCCCCCCNC(=O)OCC(COC(=O)N(Cc1cccc[n+]1CC)C(C)=O)OC (stereo not shown) [CV 6209] | 0.71±0.36 | – |
| dermatan sulfate | – | ameliorate EAE |
| batroxobin | – | ameliorate EAE |
